Source: paper PMC4780082, “Evidence for Tautomerisation of Glutamine in BLUF Blue Light Receptors by Vibrational Spectroscopy and Computational Chemistry” (Scientific Reports, 2016)

Target: T1, BlrB (Cereibacter sphaeroides, UniProt Q3IYE4)
T1 construct: full-length short BLUF protein, residues 1-140, pET28a(+), His-tag removed by thrombin, E. coli BL21(DE3) glnA knockout; unlabelled and 15N-Gln samples
Assay: light-induced FTIR difference spectroscopy of the reconstituted holoprotein
Format: binding
Conditions: FAD added for full reconstitution; flavin C4=O band of bound chromophore; pH 8.0; 20 °C

T1 sequence (Q3IYE4 entry or part of it): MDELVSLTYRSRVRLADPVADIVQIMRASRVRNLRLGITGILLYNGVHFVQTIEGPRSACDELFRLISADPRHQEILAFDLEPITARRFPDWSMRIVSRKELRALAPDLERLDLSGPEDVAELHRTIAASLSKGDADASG

Cc1cc2nc3c(=O)[nH]c(=O)nc-3n(C[C@H](O)[C@H](O)[C@H](O)COP(=O)(O)OP(=O)(O)OC[C@H]3O[C@@H](n4cnc5c(N)ncnc54)[C@H](O)[C@@H]3O)c2cc1C [flavin adenine dinucleotide]
light-induced FTIR difference spectroscopy of the reconstituted holoprotein: includes strong contributions from the C4=O stretch of flavin with an amide I band
